Here are results for one molecule from article PMC7368294 (Proceedings of the National Academy of Sciences of the …, 2020).

Common to all, as to assay: cell-based
Holding throughout (parameters): species or system Xenopus laevis oocytes

Test [1] concerns the target Amα1/Amα2/Amα8/Amβ1 nAChR (Apis mellifera, UniProt A0A7M7MMZ9+A0A8U0WQ70+A0A8U0WQC0+A0A8U0WQD1).
Test [2] concerns the target T1, Amα1/Amα8/Amβ1 nAChR (Apis mellifera, UniProt A0A7M7MMZ9+A0A8U0WQ70+A0A8U0WQC0).
T1 sequence (A0A7M7MMZ9 44-627): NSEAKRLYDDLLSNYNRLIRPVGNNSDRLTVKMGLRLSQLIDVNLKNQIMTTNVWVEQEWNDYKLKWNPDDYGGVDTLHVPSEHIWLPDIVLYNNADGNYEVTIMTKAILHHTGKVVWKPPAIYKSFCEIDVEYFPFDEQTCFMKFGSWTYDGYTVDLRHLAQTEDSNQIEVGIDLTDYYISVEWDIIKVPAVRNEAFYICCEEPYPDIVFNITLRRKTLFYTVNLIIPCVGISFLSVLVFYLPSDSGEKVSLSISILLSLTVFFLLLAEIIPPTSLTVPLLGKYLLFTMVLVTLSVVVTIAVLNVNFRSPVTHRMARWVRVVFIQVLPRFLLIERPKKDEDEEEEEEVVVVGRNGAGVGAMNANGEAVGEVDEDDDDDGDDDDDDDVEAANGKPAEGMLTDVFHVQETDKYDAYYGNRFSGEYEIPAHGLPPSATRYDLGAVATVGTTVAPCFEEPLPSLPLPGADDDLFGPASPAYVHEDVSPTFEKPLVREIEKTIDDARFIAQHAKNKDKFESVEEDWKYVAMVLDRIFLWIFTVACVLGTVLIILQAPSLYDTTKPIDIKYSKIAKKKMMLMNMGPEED
T1 sequence (A0A8U0WQ70 25-537): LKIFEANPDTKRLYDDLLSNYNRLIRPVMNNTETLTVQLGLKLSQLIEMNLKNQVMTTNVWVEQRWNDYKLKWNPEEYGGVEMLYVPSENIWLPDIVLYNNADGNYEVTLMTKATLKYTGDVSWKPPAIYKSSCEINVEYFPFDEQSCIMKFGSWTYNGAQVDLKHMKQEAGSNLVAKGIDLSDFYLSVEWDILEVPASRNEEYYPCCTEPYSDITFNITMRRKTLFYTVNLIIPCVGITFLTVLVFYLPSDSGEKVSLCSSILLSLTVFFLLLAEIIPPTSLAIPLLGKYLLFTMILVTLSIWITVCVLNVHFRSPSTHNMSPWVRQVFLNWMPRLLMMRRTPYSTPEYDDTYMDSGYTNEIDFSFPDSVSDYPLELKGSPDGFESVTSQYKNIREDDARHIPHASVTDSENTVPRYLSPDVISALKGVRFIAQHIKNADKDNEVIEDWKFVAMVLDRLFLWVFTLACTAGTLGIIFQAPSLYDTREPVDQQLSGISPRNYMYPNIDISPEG
T1 sequence (A0A8U0WQC0 25-520): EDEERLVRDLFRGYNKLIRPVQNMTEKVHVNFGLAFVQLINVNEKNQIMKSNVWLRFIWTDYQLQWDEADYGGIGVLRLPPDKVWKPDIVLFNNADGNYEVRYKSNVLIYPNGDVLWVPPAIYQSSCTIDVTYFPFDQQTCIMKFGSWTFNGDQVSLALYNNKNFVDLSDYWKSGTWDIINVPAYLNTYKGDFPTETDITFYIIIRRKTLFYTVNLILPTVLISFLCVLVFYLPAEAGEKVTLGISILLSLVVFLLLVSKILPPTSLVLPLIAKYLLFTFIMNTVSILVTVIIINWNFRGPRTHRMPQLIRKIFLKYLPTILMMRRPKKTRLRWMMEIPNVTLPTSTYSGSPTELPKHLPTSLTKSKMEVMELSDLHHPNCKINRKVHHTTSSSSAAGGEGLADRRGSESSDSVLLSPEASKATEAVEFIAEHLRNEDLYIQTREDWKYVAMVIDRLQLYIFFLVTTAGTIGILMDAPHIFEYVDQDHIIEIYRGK

Test [3] concerns the target T2, Btα1/Btα8/Btβ1 nAChR (Bombus terrestris, UniProt A0A9B0BGM1+A0A9B0F4H3+A0A9B2JDZ7).
T2 sequence (A0A9B0F4H3 44-615): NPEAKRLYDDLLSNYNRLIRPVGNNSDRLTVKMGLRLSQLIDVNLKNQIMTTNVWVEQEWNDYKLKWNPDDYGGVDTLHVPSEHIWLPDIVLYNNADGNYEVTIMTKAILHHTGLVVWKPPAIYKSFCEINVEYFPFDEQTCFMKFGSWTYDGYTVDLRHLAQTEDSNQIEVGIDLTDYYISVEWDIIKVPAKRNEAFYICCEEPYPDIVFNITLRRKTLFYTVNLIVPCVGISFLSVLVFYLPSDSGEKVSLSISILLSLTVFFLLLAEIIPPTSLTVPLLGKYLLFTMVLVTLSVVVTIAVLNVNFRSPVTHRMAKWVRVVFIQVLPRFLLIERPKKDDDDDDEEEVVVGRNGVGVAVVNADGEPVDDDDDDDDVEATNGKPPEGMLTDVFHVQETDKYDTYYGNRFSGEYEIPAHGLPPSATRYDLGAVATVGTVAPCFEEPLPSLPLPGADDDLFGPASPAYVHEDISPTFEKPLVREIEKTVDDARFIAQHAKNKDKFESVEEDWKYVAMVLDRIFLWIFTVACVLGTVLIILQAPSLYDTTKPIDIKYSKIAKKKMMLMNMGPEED
T2 sequence (A0A9B2JDZ7 22-535): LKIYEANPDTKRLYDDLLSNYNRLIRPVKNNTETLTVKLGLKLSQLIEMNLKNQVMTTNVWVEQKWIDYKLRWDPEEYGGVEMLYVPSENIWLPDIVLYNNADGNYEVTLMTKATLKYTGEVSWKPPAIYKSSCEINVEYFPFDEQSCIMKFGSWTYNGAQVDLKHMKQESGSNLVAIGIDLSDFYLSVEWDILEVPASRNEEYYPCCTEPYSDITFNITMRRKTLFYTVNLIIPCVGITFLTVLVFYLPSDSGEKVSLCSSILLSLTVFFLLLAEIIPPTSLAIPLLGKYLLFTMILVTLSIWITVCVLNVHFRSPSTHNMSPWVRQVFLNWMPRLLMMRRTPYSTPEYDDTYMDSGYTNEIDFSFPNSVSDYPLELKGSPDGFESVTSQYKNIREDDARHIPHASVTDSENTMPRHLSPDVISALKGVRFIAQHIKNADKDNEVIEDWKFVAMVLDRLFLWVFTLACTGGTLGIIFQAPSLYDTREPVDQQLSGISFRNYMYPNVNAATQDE
T2 sequence (A0A9B0BGM1 19-519): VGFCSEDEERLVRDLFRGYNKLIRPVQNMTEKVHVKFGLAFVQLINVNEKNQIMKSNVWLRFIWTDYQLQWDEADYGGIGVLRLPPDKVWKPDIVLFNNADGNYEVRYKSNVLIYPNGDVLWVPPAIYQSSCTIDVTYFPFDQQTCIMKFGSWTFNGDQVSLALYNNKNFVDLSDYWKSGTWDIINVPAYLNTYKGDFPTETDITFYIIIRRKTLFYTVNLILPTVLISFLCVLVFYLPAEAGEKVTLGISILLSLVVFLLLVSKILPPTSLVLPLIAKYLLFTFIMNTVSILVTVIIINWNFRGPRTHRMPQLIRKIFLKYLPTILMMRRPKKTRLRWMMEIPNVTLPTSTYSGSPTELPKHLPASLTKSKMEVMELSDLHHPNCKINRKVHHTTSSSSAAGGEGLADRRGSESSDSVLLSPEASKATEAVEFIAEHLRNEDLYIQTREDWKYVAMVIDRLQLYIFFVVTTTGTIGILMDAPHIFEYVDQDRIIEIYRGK

For test [4], the target named is Btα1/Btα2/Btα8/Btβ1 nAChR (Bombus terrestris, UniProt A0A9B0BGM1+A0A9B0F4H3+A0A9B2JDZ7+A0A9B2JMX7).
Sequence of Btα1/Btα2/Btα8/Btβ1 nAChR (A0A9B2JMX7 18-544, one chain of several): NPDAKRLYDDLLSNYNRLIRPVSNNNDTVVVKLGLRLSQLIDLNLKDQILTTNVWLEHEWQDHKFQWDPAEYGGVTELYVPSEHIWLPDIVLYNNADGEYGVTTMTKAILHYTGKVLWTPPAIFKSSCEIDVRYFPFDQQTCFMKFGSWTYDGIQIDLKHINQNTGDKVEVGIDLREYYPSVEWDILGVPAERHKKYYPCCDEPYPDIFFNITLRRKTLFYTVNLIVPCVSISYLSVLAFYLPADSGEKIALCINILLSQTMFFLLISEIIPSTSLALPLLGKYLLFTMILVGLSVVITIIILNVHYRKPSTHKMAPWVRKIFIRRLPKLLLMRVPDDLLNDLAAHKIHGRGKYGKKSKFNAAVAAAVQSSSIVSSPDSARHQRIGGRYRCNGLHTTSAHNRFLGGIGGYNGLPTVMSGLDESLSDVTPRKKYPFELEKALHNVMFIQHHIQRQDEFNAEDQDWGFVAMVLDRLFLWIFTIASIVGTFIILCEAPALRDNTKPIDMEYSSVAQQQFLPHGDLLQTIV

Sequence of Amα1/Amα2/Amα8/Amβ1 nAChR (A0A8U0WQD1 18-541, one chain of several): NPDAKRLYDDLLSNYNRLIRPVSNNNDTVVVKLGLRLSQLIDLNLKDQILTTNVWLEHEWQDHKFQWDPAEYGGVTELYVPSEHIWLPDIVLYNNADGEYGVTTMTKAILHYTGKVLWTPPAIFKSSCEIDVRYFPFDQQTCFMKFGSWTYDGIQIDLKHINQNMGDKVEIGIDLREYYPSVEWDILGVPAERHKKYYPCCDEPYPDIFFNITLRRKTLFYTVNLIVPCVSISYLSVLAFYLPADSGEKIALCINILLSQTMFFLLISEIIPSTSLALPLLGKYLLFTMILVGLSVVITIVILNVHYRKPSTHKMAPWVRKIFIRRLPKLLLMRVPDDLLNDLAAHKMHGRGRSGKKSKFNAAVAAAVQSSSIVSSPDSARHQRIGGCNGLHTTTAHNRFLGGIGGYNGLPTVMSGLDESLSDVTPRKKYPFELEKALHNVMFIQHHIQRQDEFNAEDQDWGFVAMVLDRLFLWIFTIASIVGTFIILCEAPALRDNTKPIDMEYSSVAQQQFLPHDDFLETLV

For the molecule `CC(=O)OCC[N+](C)(C)C` [Acetylcholine], the EC50 (in general, the concentration giving half of the maximal effect) in test [1] was 1.91 µM; in test [2], 1.15 µM; in test [3] it was 1.58 µM; in test [4] it was 2.19 µM.
